The values below are quoted from earlier work in patent US9532968B1, “Fumarate compounds, pharmaceutical compositions thereof, and methods of use” (priority 2015, dated 2017).

Each structure is given as a SMILES string.

For `COC(=O)/C=C/C(=O)OC` [DMF, dimethylfumarate], the aqueous solubility result was “poor”.
